Measurements as given in patent US7786141B2 (Vertex Pharmaceuticals Incorporated, priority 2004, dated 2010).

Tests used:
M4 muscarinic receptor = biological target: T1, M4 muscarinic receptor (Homo sapiens, UniProt P08173); test: Functional mobilization of intracellular calcium (FLIPR) in M4-CHO cells; type: cell-based; details: Table 4; for M4 Activity: M4 receptor, calcium mobilization (FLIPR)
T1 construct: expressed in transfected cells; host or cells: CHO (M4-CHO)
T1 sequence (P08173 1-479): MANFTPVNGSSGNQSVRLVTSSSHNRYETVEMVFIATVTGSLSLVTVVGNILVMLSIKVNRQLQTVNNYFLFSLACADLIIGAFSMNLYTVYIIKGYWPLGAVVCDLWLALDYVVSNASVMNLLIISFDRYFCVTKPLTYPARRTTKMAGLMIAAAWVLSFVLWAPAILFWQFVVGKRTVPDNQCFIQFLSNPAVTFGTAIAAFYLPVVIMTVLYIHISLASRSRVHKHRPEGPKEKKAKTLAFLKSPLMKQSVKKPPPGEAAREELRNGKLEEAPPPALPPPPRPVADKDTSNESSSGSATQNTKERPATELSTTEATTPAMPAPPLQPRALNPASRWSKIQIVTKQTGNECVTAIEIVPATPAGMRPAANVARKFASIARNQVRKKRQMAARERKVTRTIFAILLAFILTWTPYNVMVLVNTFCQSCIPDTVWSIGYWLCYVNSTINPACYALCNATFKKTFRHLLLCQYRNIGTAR
How it was run: (§1)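 CHO cells stably expressing human M1 or M4 receptor were loaded with Fluo-3 AM (or Calcium 3 dye) in Hepes-buffered saline, pH 7.4, with 1 mM probenecid, 0.5% final DMSO. Agonist mode: compound added directly; antagonist mode: 15 min preincubation before carbachol at EC80. FLIPR fluorescence recorded 60 sec.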

M1 muscarinic receptor = biological target: T2, M1 muscarinic receptor (Homo sapiens, UniProt P11229); test: Functional mobilization of intracellular calcium (FLIPR) in M1-CHO cells; type: cell-based; details: Table 4; for M1 Activity: M1 receptor, calcium mobilization (FLIPR)
T2 construct: expressed in transfected cells; host or cells: CHO (M1-CHO)
T2 sequence (P11229 1-460): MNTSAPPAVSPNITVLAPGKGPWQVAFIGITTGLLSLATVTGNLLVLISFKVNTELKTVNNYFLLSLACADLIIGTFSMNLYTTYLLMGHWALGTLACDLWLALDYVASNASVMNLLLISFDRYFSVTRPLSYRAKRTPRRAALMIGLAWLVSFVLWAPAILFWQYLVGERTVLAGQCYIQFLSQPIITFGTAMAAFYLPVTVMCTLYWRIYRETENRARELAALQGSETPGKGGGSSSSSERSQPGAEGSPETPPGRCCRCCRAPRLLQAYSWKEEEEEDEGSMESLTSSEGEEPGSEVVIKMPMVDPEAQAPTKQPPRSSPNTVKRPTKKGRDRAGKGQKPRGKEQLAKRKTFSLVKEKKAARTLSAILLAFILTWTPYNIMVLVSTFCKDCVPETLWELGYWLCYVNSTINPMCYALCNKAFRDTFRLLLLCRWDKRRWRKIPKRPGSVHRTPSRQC
How it was run: as §1

[1] = 100% efficacy is the maximum response obtained with the Carbachol control

Compound: CC(=O)N1CC2(CCN(C3CCN(C(=O)OCC(F)F)CC3)CC2)c2cc(C)ccc21 [compound 829]
- Emax (M4 muscarinic receptor; [1]): 25 to 100%
- M4 Activity (M4 muscarinic receptor): xxx (activity was measured to be less than 2.0 μM)
- Emax (M1 muscarinic receptor; [1]): 25 to 100%
- M1 Activity (M1 muscarinic receptor): xxx (activity was measured to be less than 2.0 μM)

Compound: CC(=O)N[C@H]1CC2(CCN(C3CCCC3C)CC2)c2ccccc21 (some centres unmarked) [compound 830]
- Emax (M4 muscarinic receptor; [1]): 25 to 100%
- M4 Activity (M4 muscarinic receptor): xx (activity was measured to be between 2.0 μM and 5.0 μM)
- Emax (M1 muscarinic receptor; [1]): 25 to 100%
- M1 Activity (M1 muscarinic receptor): x (activity was measured to be greater than 5.0 μM)

Compound: CC(=O)N[C@H]1CCC2(CCN(CCC3CCN(C(C)=O)CC3)CC2)c2ccccc21 [compound 832]
- M4 Efficacy (M4 muscarinic receptor; [1]): xx (efficacy was calculated to be between 100% and 25%)
- M4 Activity (M4 muscarinic receptor): xxx (activity was measured to be less than 2.0 μM)
- M1 Efficacy (M1 muscarinic receptor; [1]): xx (efficacy was calculated to be between 100% and 25%)
- M1 Activity (M1 muscarinic receptor): xxx (activity was measured to be less than 2.0 μM)

Compound: CC(=O)NC1CCC2(CCN(CCC3CCN(C(C)=O)CC3)CC2)c2ccccc21 (centres unmarked) [compound 833]
- Emax (M4 muscarinic receptor; [1]): 25 to 100%
- M4 Activity (M4 muscarinic receptor): xxx (activity was measured to be less than 2.0 μM)
- Emax (M1 muscarinic receptor; [1]): 25 to 100%
- M1 Activity (M1 muscarinic receptor): xxx (activity was measured to be less than 2.0 μM)

Compound: CC(=O)N[C@H]1CC2(CCN(C34CCCCC3C4)CC2)c2ccccc21 (some centres unmarked) [compound 834]
- Emax (M4 muscarinic receptor; [1]): 25 to 100%
- M4 Activity (M4 muscarinic receptor): xxx (activity was measured to be less than 2.0 μM)
- Emax (M1 muscarinic receptor; [1]): 25 to 100%
- M1 Activity (M1 muscarinic receptor): xxx (activity was measured to be less than 2.0 μM)

Compound: CCOC(=O)N1C2CCC1CC(N1CCC3(CC1)CC(=O)c1ccc(Cl)cc13)C2 (centres unmarked) [compound 836]
- Emax (M4 muscarinic receptor; [1]): 25 to 100%
- M4 Activity (M4 muscarinic receptor): xxx (activity was measured to be less than 2.0 μM)
- Emax (M1 muscarinic receptor; [1]): 25 to 100%
- M1 Activity (M1 muscarinic receptor): xxx (activity was measured to be less than 2.0 μM)

Compound: COc1cccc(-c2cncc(N3CCC(N4CCC5(CC4)CN(C(C)=O)c4ccccc45)CC3)n2)c1 [compound 837]
- Emax (M4 muscarinic receptor; [1]): < 25%
- M4 Activity (M4 muscarinic receptor): x (activity was measured to be greater than 5.0 μM)
- Emax (M1 muscarinic receptor; [1]): < 25%
- M1 Activity (M1 muscarinic receptor): x (activity was measured to be greater than 5.0 μM)

Compound: CCOC(=O)N1CCC(N2CCC3(CC2)CN(c2cccc(OC)c2)c2ccc(F)cc23)CC1 [compound 838]
- Emax (M4 muscarinic receptor; [1]): 25 to 100%
- M4 Activity (M4 muscarinic receptor): xxx (activity was measured to be less than 2.0 μM)
- Emax (M1 muscarinic receptor; [1]): 25 to 100%
- M1 Activity (M1 muscarinic receptor): xxx (activity was measured to be less than 2.0 μM)

Compound: Cc1ccc2c(c1)C1(CCN(C3CC4CCC3C4)CC1)CN2C(=O)c1ccncc1 (centres unmarked) [compound 840]
- Emax (M4 muscarinic receptor; [1]): < 25%
- M4 Activity (M4 muscarinic receptor): x (activity was measured to be greater than 5.0 μM)
- Emax (M1 muscarinic receptor; [1]): < 25%
- M1 Activity (M1 muscarinic receptor): x (activity was measured to be greater than 5.0 μM)

Compound: O=C(N[C@H]1CC2(CCN(C3CCCCC3)CC2)c2ccccc21)N1CCCC1 [compound 842]
- Emax (M4 muscarinic receptor; [1]): < 25%
- M4 Activity (M4 muscarinic receptor): xxx (activity was measured to be less than 2.0 μM)
- Emax (M1 muscarinic receptor; [1]): < 25%
- M1 Activity (M1 muscarinic receptor): x (activity was measured to be greater than 5.0 μM)

Compound: CCOC(=O)N1CC[C@@H](CN2CCC3(CC2)CN(C(C)=O)c2ccccc23)C1 [compound 843]
- Emax (M4 muscarinic receptor; [1]): 25 to 100%
- M4 Activity (M4 muscarinic receptor): xxx (activity was measured to be less than 2.0 μM)
- Emax (M1 muscarinic receptor; [1]): 25 to 100%
- M1 Activity (M1 muscarinic receptor): xxx (activity was measured to be less than 2.0 μM)

Compound: CC#CCN1CC2(CCN(C3CCN(C(=O)OCC)CC3)CC2)c2cc(F)ccc21 [compound 844]
- Emax (M4 muscarinic receptor; [1]): 25 to 100%
- M4 Activity (M4 muscarinic receptor): xxx (activity was measured to be less than 2.0 μM)
- Emax (M1 muscarinic receptor; [1]): 25 to 100%
- M1 Activity (M1 muscarinic receptor): xxx (activity was measured to be less than 2.0 μM)

Compound: CC(=O)N1CC2(CCN(CC3=CCC4C[C@@H]3C4(C)C)CC2)c2cc(F)ccc21 [compound 845]
- Emax (M4 muscarinic receptor; [1]): < 25%
- M4 Activity (M4 muscarinic receptor): x (activity was measured to be greater than 5.0 μM)
- Emax (M1 muscarinic receptor; [1]): < 25%
- M1 Activity (M1 muscarinic receptor): x (activity was measured to be greater than 5.0 μM)

Compound: O=C1CC2(CCN(CC3CCCCC3)C2)c2ccc(F)cc21 (centres unmarked) [compound 846]
- Emax (M4 muscarinic receptor; [1]): < 25%
- M4 Activity (M4 muscarinic receptor): xx (activity was measured to be between 2.0 μM and 5.0 μM)
- Emax (M1 muscarinic receptor; [1]): < 25%
- M1 Activity (M1 muscarinic receptor): xx (activity was measured to be between 2.0 μM and 5.0 μM)

Compound: CN(C)C(=O)N1CC2(CCN(C[C@H]3CCN(C(=O)OCC(F)F)C3)CC2)c2cc(F)ccc21 [compound 848]
- Emax (M4 muscarinic receptor; [1]): > 100%
- M4 Activity (M4 muscarinic receptor): xxx (activity was measured to be less than 2.0 μM)
- Emax (M1 muscarinic receptor; [1]): 25 to 100%
- M1 Activity (M1 muscarinic receptor): xxx (activity was measured to be less than 2.0 μM)

Compound: CCOC1CCCCC1N1CCC2(CC1)CN(C(C)=O)c1ccc(F)cc12 (centres unmarked) [compound 849]
- Emax (M4 muscarinic receptor; [1]): < 25%
- M4 Activity (M4 muscarinic receptor): x (activity was measured to be greater than 5.0 μM)
- Emax (M1 muscarinic receptor; [1]): < 25%
- M1 Activity (M1 muscarinic receptor): x (activity was measured to be greater than 5.0 μM)

Compound: CCOC(=O)N1CCC(N2CCC3(CC2)CN(C(=O)CCC(C)=O)c2ccc(F)cc23)CC1 [compound 851]
- Emax (M4 muscarinic receptor; [1]): 25 to 100%
- M4 Activity (M4 muscarinic receptor): xxx (activity was measured to be less than 2.0 μM)
- Emax (M1 muscarinic receptor; [1]): 25 to 100%
- M1 Activity (M1 muscarinic receptor): xxx (activity was measured to be less than 2.0 μM)

Compound: CN(C)C(=O)N1CC2(CCN(C[C@H]3CCN(c4nccs4)C3)CC2)c2cc(F)ccc21 [compound 852]
- Emax (M4 muscarinic receptor; [1]): 25 to 100%
- M4 Activity (M4 muscarinic receptor): xxx (activity was measured to be less than 2.0 μM)
- Emax (M1 muscarinic receptor; [1]): 25 to 100%
- M1 Activity (M1 muscarinic receptor): xx (activity was measured to be between 2.0 μM and 5.0 μM)

Compound: CC#CCOC(=O)N1CCC(N2CCC3(CC2)CN(CCOC)c2ccc(F)cc23)CC1 [compound 853]
- Emax (M4 muscarinic receptor; [1]): 25 to 100%
- M4 Activity (M4 muscarinic receptor): xxx (activity was measured to be less than 2.0 μM)
- Emax (M1 muscarinic receptor; [1]): 25 to 100%
- M1 Activity (M1 muscarinic receptor): xxx (activity was measured to be less than 2.0 μM)

Compound: O=C1CCCN1[C@H]1CCC2(CCN([C@H]3CC4CC[C@H](C4)C3)CC2)c2ccccc21 [compound 854]
- Emax (M4 muscarinic receptor; [1]): 25 to 100%
- M4 Activity (M4 muscarinic receptor): xxx (activity was measured to be less than 2.0 μM)
- Emax (M1 muscarinic receptor; [1]): 25 to 100%
- M1 Activity (M1 muscarinic receptor): xxx (activity was measured to be less than 2.0 μM)

Compound: CCOC(=O)N1CCC(N2CCC3(CC2)CN(c2cncnc2)c2ccc(F)cc23)CC1 [compound 855]
- Emax (M4 muscarinic receptor; [1]): 25 to 100%
- M4 Activity (M4 muscarinic receptor): xxx (activity was measured to be less than 2.0 μM)
- Emax (M1 muscarinic receptor; [1]): 25 to 100%
- M1 Activity (M1 muscarinic receptor): xxx (activity was measured to be less than 2.0 μM)

Compound: O=C1CCCN1[C@H]1CCC2(CCN(C[C@@H]3C[C@H]4C=CC3C4)CC2)c2ccccc21 [compound 856]
- Emax (M4 muscarinic receptor; [1]): 25 to 100%
- M4 Activity (M4 muscarinic receptor): xxx (activity was measured to be less than 2.0 μM)
- Emax (M1 muscarinic receptor; [1]): 25 to 100%
- M1 Activity (M1 muscarinic receptor): xxx (activity was measured to be less than 2.0 μM)

Compound: CCOC(=O)N1CCC(N2CCC3(CC2)CN(C(C)=O)c2c(-c4ccccc4)cccc23)CC1 [compound 857]
- Emax (M4 muscarinic receptor; [1]): < 25%
- M4 Activity (M4 muscarinic receptor): x (activity was measured to be greater than 5.0 μM)
- Emax (M1 muscarinic receptor; [1]): 25 to 100%
- M1 Activity (M1 muscarinic receptor): x (activity was measured to be greater than 5.0 μM)
